Measurements: PubChem BioAssay AID248 (DTP/NCI, 2004)
Where “and” joins values, the source holds several entries; their conditions need not be identical. Identical values can stand only once. Toxic doses and inconclusive results are not listed.

Test system: L1210 leukemia ip in BDF1 mice, survival T/C
Test: NCI In Vivo Anticancer Drug Screen. Data for tumor model L1210 Leukemia (intraperitoneal) in B6D2F1 (BDF1) mice
Conditions: higher = longer survival
In short: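 Tumor cells were implanted, animals were treated, and survival was followed. The result divides the treated measurement by the vehicle-control measurement.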

SMILES: C[C@H](N)C(=O)N[C@@H]1[C@H]2C(=C(O)C[C@@H](O)[C@@H]2O)C(=O)O[C@@H]1C
- T/C (endpoint: mean survival time, dose: 16.0 mg/kg/injection, schedule: Q01DX Z (ip), vehicle: carboxymethylcellulose (CMC)): 100 % of control
- T/C (endpoint: mean survival time, dose: 31.0 mg/kg/injection, schedule: Q01DX Z (ip), vehicle: carboxymethylcellulose (CMC)): 97 % of control
- T/C (endpoint: mean survival time, dose: 37.5 mg/kg/injection, schedule: Q01DX010 (ip), vehicle: saline): 102 % of control and 104 % of control
- T/C (endpoint: mean survival time, dose: 50.0 mg/kg/injection, schedule: Q01DX001 (ip), vehicle: saline): 105 % of control
- T/C (endpoint: mean survival time, dose: 50.0 mg/kg/injection, schedule: Q#A X Z (ip), vehicle: saline): 120 % of control
- T/C (endpoint: mean survival time, dose: 62.0 mg/kg/injection, schedule: Q01DX Z (ip), vehicle: carboxymethylcellulose (CMC)): 112 % of control
- T/C (endpoint: mean survival time, dose: 75.0 mg/kg/injection, schedule: Q01DX010 (ip), vehicle: saline): 104 % of control
- T/C (endpoint: mean survival time, dose: 88.0 mg/kg/injection, schedule: Q01DX015 (ip), vehicle: saline): 118 % of control
- T/C (endpoint: mean survival time, dose: 100.0 mg/kg/injection, schedule: Q01DX001 (ip), vehicle: saline): 104 % of control
- T/C (endpoint: mean survival time, dose: 100.0 mg/kg/injection, schedule: Q01DX006 (iv), vehicle: saline): 101 % of control
- T/C (endpoint: mean survival time, dose: 100.0 mg/kg/injection, schedule: Q01DX Z (im), vehicle: saline): 98 % of control
- T/C (endpoint: mean survival time, dose: 100.0 mg/kg/injection, schedule: Q01DX Z (sc), vehicle: saline): 102 % of control
- T/C (endpoint: mean survival time, dose: 125.0 mg/kg/injection, schedule: Q01DX Z (ip), vehicle: carboxymethylcellulose (CMC)): 124 % of control
- T/C (endpoint: mean survival time, dose: 125.0 mg/kg/injection, schedule: Q01DX Z (ip), vehicle: saline): 116 % of control
- T/C (endpoint: mean survival time, dose: 130.0 mg/kg/injection, schedule: Q01DX015 (ip), vehicle: saline): 114 % of control
- T/C (endpoint: mean survival time, dose: 150.0 mg/kg/injection, schedule: Q01DX005 (ip), vehicle: saline): 104 % of control
- T/C (endpoint: mean survival time, dose: 150.0 mg/kg/injection, schedule: Q03HX016 (ip), vehicle: saline): 103 % of control
- T/C (endpoint: mean survival time, dose: 150.0 mg/kg/injection, schedule: Q08DX002 (ip), vehicle: saline): 116 % of control
- T/C (endpoint: mean survival time, dose: 200.0 mg/kg/injection, schedule: Q01DX001 (ip), vehicle: saline): 110 % of control
- T/C (endpoint: mean survival time, dose: 200.0 mg/kg/injection, schedule: Q01DX006 (iv), vehicle: saline): 104 % of control
- T/C (endpoint: mean survival time, dose: 200.0 mg/kg/injection, schedule: Q01DX015 (ip), vehicle: saline): 120 % of control
- T/C (endpoint: mean survival time, dose: 200.0 mg/kg/injection, schedule: Q01DX Z (im), vehicle: saline): 110 % of control
- T/C (endpoint: mean survival time, dose: 200.0 mg/kg/injection, schedule: Q01DX Z (sc), vehicle: saline): 116 % of control
- T/C (endpoint: mean survival time, dose: 268.0 mg/kg/injection, schedule: Q## X004 (ip), vehicle: saline): 108 % of control
- T/C (endpoint: mean survival time, dose: 300.0 mg/kg/injection, schedule: Q01DX001 (sc), vehicle: saline): 96 % of control
- T/C (endpoint: mean survival time, dose: 300.0 mg/kg/injection, schedule: Q01DX005 (ip), vehicle: saline): 116 % of control
- T/C (endpoint: mean survival time, dose: 300.0 mg/kg/injection, schedule: Q01DX009 (sc), vehicle: saline): 113 % of control
- T/C (endpoint: mean survival time, dose: 300.0 mg/kg/injection, schedule: Q01DX Z (ip), vehicle: saline): 160 % of control
- T/C (endpoint: mean survival time, dose: 300.0 mg/kg/injection, schedule: Q03HX016 (ip), vehicle: saline): 110 % of control
- T/C (endpoint: mean survival time, dose: 300.0 mg/kg/injection, schedule: Q03HX024 (ip), vehicle: saline): 109 % of control
- T/C (endpoint: mean survival time, dose: 300.0 mg/kg/injection, schedule: Q04DX003 (ip), vehicle: saline): 119 % of control
- T/C (endpoint: mean survival time, dose: 300.0 mg/kg/injection, schedule: Q08DX002 (ip), vehicle: saline): 111 % of control
- T/C (endpoint: mean survival time, dose: 320.0 mg/kg/injection, schedule: Q01DX015 (ip), vehicle: saline): 156 % of control and 174 % of control
- T/C (endpoint: mean survival time, dose: 333.0 mg/kg/injection, schedule: Q02DX004 (ip), vehicle: saline): 116 % of control
- T/C (endpoint: mean survival time, dose: 352.0 mg/kg/injection, schedule: Q## X032 (ip), vehicle: saline): 116 % of control
- T/C (endpoint: mean survival time, dose: 400.0 mg/kg/injection, schedule: Q01DX001 (ip), vehicle: saline): 105 % of control
- T/C (endpoint: mean survival time, dose: 400.0 mg/kg/injection, schedule: Q01DX006 (iv), vehicle: saline): 113 % of control
- T/C (endpoint: mean survival time, dose: 400.0 mg/kg/injection, schedule: Q01DX013 (ip), vehicle: saline): 178 % of control
- T/C (endpoint: mean survival time, dose: 400.0 mg/kg/injection, schedule: Q01DX Z (ip), vehicle: saline): 151 % of control
- T/C (endpoint: mean survival time, dose: 400.0 mg/kg/injection, schedule: Q01DX Z (oral), vehicle: saline): 104 % of control
- T/C (endpoint: mean survival time, dose: 400.0 mg/kg/injection, schedule: Q## X004 (ip), vehicle: saline): 113 % of control
- T/C (endpoint: mean survival time, dose: 450.0 mg/kg/injection, schedule: Q01DX015 (ip), vehicle: saline): 155 % of control
- T/C (endpoint: mean survival time, dose: 536.0 mg/kg/injection, schedule: Q## X032 (ip), vehicle: saline): 119 % of control and 120 % of control
- T/C (endpoint: mean survival time, dose: 600.0 mg/kg/injection, schedule: Q01DX001 (sc), vehicle: saline): 105 % of control
- T/C (endpoint: mean survival time, dose: 600.0 mg/kg/injection, schedule: Q01DX005 (ip), vehicle: saline): 118 % of control
- T/C (endpoint: mean survival time, dose: 600.0 mg/kg/injection, schedule: Q01DX009 (sc), vehicle: saline): 119 % of control
- T/C (endpoint: mean survival time, dose: 600.0 mg/kg/injection, schedule: Q03HX016 (ip), vehicle: saline): 110 % of control
- T/C (endpoint: mean survival time, dose: 600.0 mg/kg/injection, schedule: Q03HX024 (ip), vehicle: saline): 115 % of control
- T/C (endpoint: mean survival time, dose: 600.0 mg/kg/injection, schedule: Q04DX003 (ip), vehicle: saline): 119 % of control
- T/C (endpoint: mean survival time, dose: 600.0 mg/kg/injection, schedule: Q08DX002 (ip), vehicle: saline): 113 % of control
- T/C (endpoint: mean survival time, dose: 600.0 mg/kg/injection, schedule: Q## X004 (ip), vehicle: saline): 111 % of control
- T/C (endpoint: mean survival time, dose: 656.0 mg/kg/injection, schedule: Q01DX015 (ip), vehicle: carboxymethylcellulose (CMC)): 162 % of control
- T/C (endpoint: mean survival time, dose: 700.0 mg/kg/injection, schedule: Q01DX001 (ip), vehicle: saline): 110 % of control and 117 % of control
- T/C (endpoint: mean survival time, dose: 700.0 mg/kg/injection, schedule: Q07DX Z (ip), vehicle: saline): 114 % of control
- T/C (endpoint: mean survival time, dose: 800.0 mg/kg/injection, schedule: Q01DX Z (im), vehicle: saline): 176 % of control
- T/C (endpoint: mean survival time, dose: 800.0 mg/kg/injection, schedule: Q01DX Z (oral), vehicle: saline): 108 % of control
- T/C (endpoint: mean survival time, dose: 800.0 mg/kg/injection, schedule: Q01DX Z (sc), vehicle: saline): 174 % of control
- T/C (endpoint: mean survival time, dose: 800.0 mg/kg/injection, schedule: Q## X032 (ip), vehicle: saline): 117 % of control
- T/C (endpoint: mean survival time, dose: 900.0 mg/kg/injection, schedule: Q## X004 (ip), vehicle: saline): 122 % of control
- T/C (endpoint: mean survival time, dose: 1084.0 mg/kg/injection, schedule: Q01DX001 (ip), vehicle: saline): 94 % of control and 95 % of control
- T/C (endpoint: mean survival time, dose: 1200.0 mg/kg/injection, schedule: Q01DX001 (sc), vehicle: saline): 101 % of control
- T/C (endpoint: mean survival time, dose: 1200.0 mg/kg/injection, schedule: Q03HX016 (ip), vehicle: saline): 111 % of control
- T/C (endpoint: mean survival time, dose: 1200.0 mg/kg/injection, schedule: Q## X032 (ip), vehicle: saline): 120 % of control and 121 % of control
- T/C (endpoint: mean survival time, dose: 1300.0 mg/kg/injection, schedule: Q01DX001 (ip), vehicle: saline): 106 % of control
- T/C (endpoint: mean survival time, dose: 1350.0 mg/kg/injection, schedule: Q## X004 (ip), vehicle: saline): 122 % of control
- T/C (endpoint: mean survival time, dose: 1400.0 mg/kg/injection, schedule: Q01DX001 (ip), vehicle: saline): 106 % of control and 119 % of control
- T/C (endpoint: mean survival time, dose: 1400.0 mg/kg/injection, schedule: Q07DX Z (ip), vehicle: saline): 120 % of control
- T/C (endpoint: mean survival time, dose: 1491.0 mg/kg/injection, schedule: Q01DX015 (ip), vehicle: carboxymethylcellulose (CMC)): 155 % of control
- T/C (endpoint: mean survival time, dose: 1600.0 mg/kg/injection, schedule: Q01DX Z (im), vehicle: saline): 160 % of control
- T/C (endpoint: mean survival time, dose: 1600.0 mg/kg/injection, schedule: Q01DX Z (oral), vehicle: saline): 106 % of control
- T/C (endpoint: mean survival time, dose: 1650.0 mg/kg/injection, schedule: Q01DX001 (ip), vehicle: saline): 96 % of control and 97 % of control
- T/C (endpoint: mean survival time, dose: 1687.0 mg/kg/injection, schedule: Q02DX004 (ip), vehicle: saline): 166 % of control
- T/C (endpoint: mean survival time, dose: 2000.0 mg/kg/injection, schedule: Q01DX001 (ip), vehicle: saline): 120 % of control
- T/C (endpoint: mean survival time, dose: 2024.0 mg/kg/injection, schedule: Q01DX001 (ip), vehicle: saline): 115 % of control
- T/C (endpoint: mean survival time, dose: 2237.0 mg/kg/injection, schedule: Q01DX015 (ip), vehicle: carboxymethylcellulose (CMC)): 108 % of control
- T/C (endpoint: mean survival time, dose: 2400.0 mg/kg/injection, schedule: Q01DX001 (sc), vehicle: saline): 104 % of control
- T/C (endpoint: mean survival time, dose: 2400.0 mg/kg/injection, schedule: Q03HX016 (ip), vehicle: saline): 119 % of control
- T/C (endpoint: mean survival time, dose: 2400.0 mg/kg/injection, schedule: Q08DX002 (ip), vehicle: saline): 122 % of control
- T/C (endpoint: mean survival time, dose: 2464.0 mg/kg/injection, schedule: Q01DX001 (ip), vehicle: saline): 100 % of control
- T/C (endpoint: mean survival time, dose: 2800.0 mg/kg/injection, schedule: Q01DX001 (ip), vehicle: saline): 123 % of control
- T/C (endpoint: mean survival time, dose: 2800.0 mg/kg/injection, schedule: Q07DX Z (ip), vehicle: saline): 119 % of control
- T/C (endpoint: mean survival time, dose: 3000.0 mg/kg/injection, schedule: Q01DX001 (ip), vehicle: saline): 115 % of control
- T/C (endpoint: mean survival time, dose: 3200.0 mg/kg/injection, schedule: Q01DX Z (oral), vehicle: saline): 108 % of control
- T/C (endpoint: median survival time, dose: 75.0 mg/kg/injection, schedule: Q01DX009 (ip), vehicle: saline): 113 % of control
- T/C (endpoint: median survival time, dose: 133.0 mg/kg/injection, schedule: Q04DX003 (ip), vehicle: saline): 97 % of control
- T/C (endpoint: median survival time, dose: 266.0 mg/kg/injection, schedule: Q04DX003 (ip), vehicle: saline): 101 % of control
- T/C (endpoint: median survival time, dose: 532.0 mg/kg/injection, schedule: Q04DX003 (ip), vehicle: saline): 110 % of control
- T/C (endpoint: median survival time, dose: 600.0 mg/kg/injection, schedule: Q01DX009 (ip), vehicle: saline): 160 % of control
- T/C (endpoint: median survival time, dose: 1200.0 mg/kg/injection, schedule: Q01DX009 (ip), vehicle: saline): 180 % of control
